From US6632799B2, “Injectable ready-to-use solutions containing an antitumor anthracycline glycoside” (Pharmacia & Upjohn Company, priority 1985, dated 2003)
Structures can show the parent of a compound that is named as a salt.

Experiment: pH-stability profile at 55° C. of doxorubicin.HCl solutions in sterile water, 5% dextrose, 0.9% saline
Format: physicochemical

With `COc1cccc2c1C(=O)c1c(O)c3c(c(O)c1C2=O)C[C@@](O)(C(=O)CO)C[C@@H]3O[C@H]1C[C@H](N)[C@H](O)[C@H](C)O1` [Doxorubicin.HCl, doxorubicin hydrochloride] the “pH range of maximum stability” value (2 mg/ml, 55° C., all three media, ±0.2) was 3.0-3.5, the “Kobs × 10^3” value (0.9% saline, Acetate pH 4.0, 55° C.) was 215.7 1/days and the “Kobs × 10^3” value (0.9% saline, Acetate pH 5.0, 55° C.) was 301.2 1/days. For the same compound, the “Kobs × 10^3” value (0.9% saline, Acetate pH 5.5, 55° C.) was 430.3 1/days, the “Kobs × 10^3” value (0.9% saline, Formate pH 3.5, 55° C.) was 148.1 1/days and the “Kobs × 10^3” value (0.9% saline, Glycine-HCl pH 2.0, 55° C.) was 362.4 1/days. For the same compound, the “Kobs × 10^3” value (0.9% saline, Glycine-HCl pH 2.5, 55° C.) was 276.5 1/days, the “Kobs × 10^3” value (0.9% saline, Glycine-HCl pH 3.0, 55° C.) was 133.2 1/days and the Doxorubicin.HCl % stability (0.9% saline, pH 2.5 buffer, 55° C., 0 hours) was 100.0%. For the same compound, the Doxorubicin.HCl % stability (0.9% saline, pH 2.5 buffer, 55° C., 16 hours) was 85.8%, the Doxorubicin.HCl % stability (0.9% saline, pH 2.5 buffer, 55° C., 24 hours) was 82.3% and the Doxorubicin.HCl % stability (0.9% saline, pH 2.5 buffer, 55° C., 34 hours) was 70.3%. For the same compound, the Doxorubicin.HCl % stability (0.9% saline, pH 2.5 buffer, 55° C., 48 hours) was 58.1%, the Doxorubicin.HCl % stability (0.9% saline, pH 3.0 buffer, 55° C., 0 hours) was 100.0% and the Doxorubicin.HCl % stability (0.9% saline, pH 3.0 buffer, 55° C., 16 hours) was 91.2%. It also gave a Doxorubicin.HCl % stability (0.9% saline, pH 3.0 buffer, 55° C., 24 hours) of 88.8%, a Doxorubicin.HCl % stability (0.9% saline, pH 3.0 buffer, 55° C., 48 hours) of 78.8% and a Doxorubicin.HCl % stability (0.9% saline, pH 3.0 buffer, 55° C., 72 hours) of 69.0%. It also gave a Doxorubicin.HCl % stability (0.9% saline, pH 3.0 buffer, 55° C., 96 hours) of 60.4%, a Doxorubicin.HCl % stability (0.9% saline, pH 3.0 buffer, 55° C., 120 hours) of 50.3% and a Doxorubicin.HCl % stability (0.9% saline, pH 3.5 buffer, 55° C., 0 hours) of 100.0%. For the same compound, the Doxorubicin.HCl % stability (0.9% saline, pH 3.5 buffer, 55° C., 16 hours) was 91.4%, the Doxorubicin.HCl % stability (0.9% saline, pH 3.5 buffer, 55° C., 24 hours) was 87.2% and the Doxorubicin.HCl % stability (0.9% saline, pH 3.5 buffer, 55° C., 48 hours) was 77.3%. The Doxorubicin.HCl % stability (0.9% saline, pH 3.5 buffer, 55° C., 96 hours) was 58.9%, the Doxorubicin.HCl % stability (0.9% saline, pH 3.5 buffer, 55° C., 120 hours) was 46.0% and the “Kobs × 10^3” value (5% dextrose, Acetate pH 4.0, 55° C.) was 209.7 1/days. The “Kobs × 10^3” value (5% dextrose, Acetate pH 5.0, 55° C.) was 273.1 1/days, the “Kobs × 10^3” value (5% dextrose, Acetate pH 5.5, 55° C.) was 453.7 1/days and the “Kobs × 10^3” value (5% dextrose, Formate pH 3.5, 55° C.) was 132.0 1/days. For the same compound, the “Kobs × 10^3” value (5% dextrose, Glycine-HCl pH 2.0, 55° C.) was 323.8 1/days, the “Kobs × 10^3” value (5% dextrose, Glycine-HCl pH 2.5, 55° C.) was 138.7 1/days and the “Kobs × 10^3” value (5% dextrose, Glycine-HCl pH 3.0, 55° C.) was 100.5 1/days. The Doxorubicin.HCl % stability (5% dextrose, pH 2.0 buffer, 55° C., 0 hours) was 100.0%, the Doxorubicin.HCl % stability (5% dextrose, pH 2.0 buffer, 55° C., 8 hours) was 92.8% and the Doxorubicin.HCl % stability (5% dextrose, pH 2.0 buffer, 55° C., 16 hours) was 84.4%. It also gave a Doxorubicin.HCl % stability (5% dextrose, pH 2.0 buffer, 55° C., 24 hours) of 75.9%, a Doxorubicin.HCl % stability (5% dextrose, pH 2.0 buffer, 55° C., 34 hours) of 68.3% and a Doxorubicin.HCl % stability (5% dextrose, pH 2.0 buffer, 55° C., 48 hours) of 54.1%. For the same compound, the Doxorubicin.HCl % stability (5% dextrose, pH 2.0 buffer, 55° C., 72 hours) was 38.4%, the Doxorubicin.HCl % stability (5% dextrose, pH 2.5 buffer, 55° C., 0 hours) was 100.0% and the Doxorubicin.HCl % stability (5% dextrose, pH 2.5 buffer, 55° C., 8 hours) was 96.4%. For the same compound, the Doxorubicin.HCl % stability (5% dextrose, pH 2.5 buffer, 55° C., 16 hours) was 92.6%, the Doxorubicin.HCl % stability (5% dextrose, pH 2.5 buffer, 55° C., 24 hours) was 89.5% and the Doxorubicin.HCl % stability (5% dextrose, pH 2.5 buffer, 55° C., 34 hours) was 85.5%. It also gave a Doxorubicin.HCl % stability (5% dextrose, pH 2.5 buffer, 55° C., 48 hours) of 76.2%, a Doxorubicin.HCl % stability (5% dextrose, pH 2.5 buffer, 55° C., 72 hours) of 66.3% and a Doxorubicin.HCl % stability (5% dextrose, pH 3.0 buffer, 55° C., 0 hours) of 100.0%. For the same compound, the Doxorubicin.HCl % stability (5% dextrose, pH 3.0 buffer, 55° C., 16 hours) was 96.6%, the Doxorubicin.HCl % stability (5% dextrose, pH 3.0 buffer, 55° C., 24 hours) was 92.7% and the Doxorubicin.HCl % stability (5% dextrose, pH 3.0 buffer, 55° C., 48 hours) was 83.3%. For the same compound, the Doxorubicin.HCl % stability (5% dextrose, pH 3.0 buffer, 55° C., 72 hours) was 76.4%, the Doxorubicin.HCl % stability (5% dextrose, pH 3.0 buffer, 55° C., 96 hours) was 68.0% and the Doxorubicin.HCl % stability (5% dextrose, pH 3.0 buffer, 55° C., 120 hours) was 61.1%. For the same compound, the Doxorubicin.HCl % stability (5% dextrose, pH 3.5 buffer, 55° C., 0 hours) was 100.0%, the Doxorubicin.HCl % stability (5% dextrose, pH 3.5 buffer, 55° C., 16 hours) was 95.7% and the Doxorubicin.HCl % stability (5% dextrose, pH 3.5 buffer, 55° C., 24 hours) was 93.7%. The Doxorubicin.HCl % stability (5% dextrose, pH 3.5 buffer, 55° C., 48 hours) was 81.8%, the Doxorubicin.HCl % stability (5% dextrose, pH 3.5 buffer, 55° C., 72 hours) was 66.8% and the Doxorubicin.HCl % stability (5% dextrose, pH 3.5 buffer, 55° C., 96 hours) was 61.6%. The Doxorubicin.HCl % stability (5% dextrose, pH 4.0 buffer, 55° C., 0 hours) was 100.0%, the Doxorubicin.HCl % stability (5% dextrose, pH 4.0 buffer, 55° C., 8 hours) was 95.5% and the Doxorubicin.HCl % stability (5% dextrose, pH 4.0 buffer, 55° C., 16 hours) was 85.6%. The Doxorubicin.HCl % stability (5% dextrose, pH 4.0 buffer, 55° C., 48 hours) was 65.5%, the Doxorubicin.HCl % stability (5% dextrose, pH 4.0 buffer, 55° C., 72 hours) was 53.9% and the Doxorubicin.HCl % stability (5% dextrose, pH 5.0 buffer, 55° C., 0 hours) was 100.0%. For the same compound, the Doxorubicin.HCl % stability (5% dextrose, pH 5.0 buffer, 55° C., 8 hours) was 94.7%, the Doxorubicin.HCl % stability (5% dextrose, pH 5.0 buffer, 55° C., 16 hours) was 83.2% and the Doxorubicin.HCl % stability (5% dextrose, pH 5.0 buffer, 55° C., 24 hours) was 79.9%. The Doxorubicin.HCl % stability (5% dextrose, pH 5.0 buffer, 55° C., 34 hours) was 70.4%, the Doxorubicin.HCl % stability (5% dextrose, pH 5.0 buffer, 55° C., 48 hours) was 57.8% and the Doxorubicin.HCl % stability (5% dextrose, pH 5.5 buffer, 55° C., 0 hours) was 100.0%. It also gave a Doxorubicin.HCl % stability (5% dextrose, pH 5.5 buffer, 55° C., 8 hours) of 92.5%, a Doxorubicin.HCl % stability (5% dextrose, pH 5.5 buffer, 55° C., 16 hours) of 73.8% and a Doxorubicin.HCl % stability (5% dextrose, pH 5.5 buffer, 55° C., 24 hours) of 62.6%. The Doxorubicin.HCl % stability (5% dextrose, pH 5.5 buffer, 55° C., 34 hours) was 54.8%, the “Kobs × 10^3” value (sterile water, Acetate pH 4.0, 55° C.) was 269.8 1/days and the “Kobs × 10^3” value (sterile water, Acetate pH 5.0, 55° C.) was 322.6 1/days. The “Kobs × 10^3” value (sterile water, Acetate pH 5.5, 55° C.) was 415.4 1/days, the “Kobs × 10^3” value (sterile water, Formate pH 3.5, 55° C.) was 96.7 1/days and the “Kobs × 10^3” value (sterile water, Glycine-HCl pH 2.0, 55° C.) was 309.5 1/days. For the same compound, the “Kobs × 10^3” value (sterile water, Glycine-HCl pH 2.5, 55° C.) was 138.3 1/days, the “Kobs × 10^3” value (sterile water, Glycine-HCl pH 3.0, 55° C.) was 93.1 1/days and the Doxorubicin.HCl % stability (sterile water, pH 2.0 buffer, 55° C., 0 hours) was 100.0%. It also gave a Doxorubicin.HCl % stability (sterile water, pH 2.0 buffer, 55° C., 8 hours) of 93.6%.
